Measurements from US6379959B1, “Metalocarboxypeptidase inhibitors and derived molecules used as antitumor agents” (Universitat Autonoma de Barcelona, priority 1996, dated 2002).
Where two headings read alike, the source gives them in different places. Positions of bridges follow the written chain, without caps; N, C: chain ends. No end group written: not given here.

What was measured:
[1] = test system: tumors of human pancreatic adenocarcinoma cell line Capan-1; assay: Tests with athymic mice, subcutaneous Capan-1 tumors; format: in vivo, nude mice; design: key to SGD class: SGD < 1 expressed as −; >expressed +; <3 expressed as +++; conditions: for Duplication time (days) of the tumor: daily 100 μL into the tumor, 32 days (control 4.32)
Procedure: With the aim of evaluating the sensitivity to PCI of induced human tumors, studies were carried out with nude mice. Human pancreatic adenocarcinoma cells Capan-1 were inoculated in these mice subcutaneously and once the tumor reached a minimum size of 3×3 mm2, a daily treatment begun, also subcutaneous, with different doses of PCI for 32 days. The following materials were employed:
In order to determine whether the PCI had any effect on tumoral growth, the growth of subcutaneous tumors induced in nude mice, whether treated with PCI or not, was followed over a period of time. The detailed protocol was the following:
1. 10^7 Capan-1 cells were dissolved in 100 μL of DMEM and injected subcutaneously to the mice. 19 mice were inoculated and divided into 4 groups.
Control group: consisting of 5 mice. They were treated with PBS.
Group 1: also consisting of 5 mice. They were treated with 0.11 mg/mL of PCI dissolved in PBS.
Group 2: consisting of 5 mice to which a treatment with a dose of 0.6 mg/mL of PCI was applied.
Group 3: consisting of 4 mice for which, in this case, the dose of PCI was 1.2 mg/mL of PCI.
2. 12 days after the inoculation of the cells, the daily treatment with PBS or PCI by direct injection in the tumor of 100 μL of such solutions was started. At this moment, the tumors were palpable and measured, at least, 2 mm of diameter.
3. During the treatment, the size of the tumor was determined every two days using a Vernier calibrator which made it possible to measure the size of the tumor in all its dimensions. The volume of the tumor was determined by means of the following formula: [formula]
As the volumes of the tumors became known, the relative growth of such tumors was calculated every 7 days using the following formula: [formula]
Once the treatment had finished, the duplication time of the tumor (td) was calculated for each treatment with the following formula: [formula]
where d corresponds to the days of treatment, Vt to the volume of the tumor at the end of the treatment and V0 to the volume at the beginning of the treatment.

[2] = test system: ribonuclease secreted by Capan-1; assay: Ribonuclease secretion and glycosylation pattern (zymogram); format: cell-based, human; conditions: PCI 5 μg/mL, pre and postadhesion; DMEM + BMS 10%
From the text: To verify whether the PCI when affecting cell growth may provoke metabolic changes too, we analysed the changes in a secreted protein, ribonuclease, in the human pancreatic adenocarcinoma cell line Capan-1. Apart from the mentioned material required for cell culture, this analysis was based on the detection of ribonuclease activity by means of the electrophoretic analysis in activity gels (zymograms) (Bravo, J. et al (1994) Anal Biochem., 219: 82-86).
With this aim in mind, the culture medium of the proliferation tests of Section 4.B.1 was taken. Thus, a culture medium of control cells was provided for cells treated with PCI from the beginning (preanchorage) and for cells treated once they had adhered to the culture surface (postanchorage). Given the fact that the FBS contains bovine ribonuclease which would interfere in our research, these cells grew in DMEM supplemented with BMS at 10%. The procedure was as follows: […]
At the moment of the analyses, the media were unfrozen in order to have an aliquot of each sample. The concentration of total protein was determined by means of the Bradford method (Bradford, M. M. (1976) Anal. Biochem., 72: 248-254). […]
The analysis of ribonuclease secretion was done with Capan-1. […] Using the electrophoretic analysis of ribonuclease activity, the pattern of glycosylation of this protein could be observed and a certain quantification could be made.

[3] = test system: human pancreatic adenocarcinoma cell line Capan-1; format: cell-based; conditions: SFM, 72 h
Procedure: Other kinds of tests were also carried out, the cells growing in serum-free medium as well; these were studies at short periods of time, 72 h, and of competitiveness with a growth factor plus wtPCI, PCIdelYVG or tail. […] The protocol employed was as follows:
1. In a culture plate of 96 wells, in 42 of which 5,000 cells per well were seed. The cells were placed in full medium (DMEM+10%FBS).
2. After 72 h, once the adhesion of the cells to the surface of the well had taken place, as well as their division, the medium was removed from the wells and to eliminate the remainder of the serum, 200 μL of PBS were added to each well.
3. The PBS was removed and 200 μL of DMEM-FBS were added.
4. After 24 h, the medium was removed and the following treatments were applied:
In 6 wells (control): 200 μL of serum-free medium (SFM) were added.
200 μL of SFM plus the indicated concentration of one of the growth factors and wtPCI were added in 6 wells at a final concentration of 50 μg/mL.
In 6 wells, 200 μL of SFM plus the indicated concentration of one of the growth factors and PCIdelYVG were added at a final concentration of 46 μg/mL. […]
4. Cells were kept in an incubator at 37° C., 87% of relative humidity and 10% of CO2.
5. After 72 h, the cellular growth per well was evaluated using the method detailed in the protocol of Section 4.B.2.a.

[4] = test system: Int-2 murine insulinoma cell line; assay: Proliferation of Int-2 cells pretreated with PCI; format: cell-based; conditions: pretreatment 50 μg/mL of PCI, 7, 20 and 30 days; treatments 7, 8 and 5 days
Procedure: The analysed cell lines were Capan-1, already described, and Int-2. This latter being a murine insulinoma cell line derived from transgenic mice developed in the lab of Dr. M. Frazier. The medium employed for the growth of both lines was DMEM+10%FBS and the culture techniques that were used were identical to those previously described. In the case of the Int-2 cell line, only proliferation tests were performed. They were carried out in the same way as that described in the case of Capan-1, with the unique difference that the number of cells that was put per well in the plate of 96 was 500 instead of 2,000.

[5] = Dose 0.55 (mg(kg/day), s.c., days 0-32)
[6] = Dose 3 (mg(kg/day), s.c., days 0-32)
[7] = Dose 6 (mg(kg/day), s.c., days 0-32)

PCI: potato carboxypeptidase inhibitor, isoform IIa, obtained by recombinant DNA techniques in E. coli (SEQ ID NO.2) (EQHADPICNKPCKTHDDCSGAWFCQACWNSARTCGPYVG; disulfide 12-27, 18-34, 8-24)
Duplication time (days) of the tumor ([1]; 0.11 mg/mL PCI): 9.06 days
Duplication time (days) of the tumor ([1]; 0.6 mg/mL PCI): 19.49 days
Duplication time (days) of the tumor ([1]; 1.2 mg/mL PCI): 5.78 days
Optimal T/C % [1, 5]: 39.79%
SGD (Td treated- Td control/Td control) [1, 5]: 1.09
SGD class [1, 5]: +
Optimal T/C % [1, 6]: 21.36%
SGD (Td treated- Td control/Td control) [1, 6]: 3.51
SGD class [1, 6]: +++ (<3 expressed as +++)
Optimal T/C % [1, 7]: 69.4%
SGD (Td treated- Td control/Td control) [1, 7]: 0.34
SGD class [1, 7]: − (SGD < 1 expressed as −)
days of treatment until tumors start bleeding in the process of injection ([1]; animals treated with PCI (control three days)): 8 days
activity in the reduction of the growth of the tumors ([1]; dose of 0.11 mg/mL): moderate activity (T/C < 50% moderate activity)
duplication time of the tumor relative to the control tumors ([1]; dose of 0.11 mg/mL of PCI): twice as high
activity in the reduction of the growth of the tumors ([1]; dose of PCI of 0.6 mg/mL): significant activity (T/C < 25%, significant activity)
duplication time of the tumor relative to the control group ([1]; doses of 0.6 mg/mL): 4.5 times
secretion and glycosylation of ribonuclease compared to the control group [2]: higher secretion of ribonuclease with a higher degree of glycosylation
Growth (Percentage in relation to the average of the controls) ([3]; EGF 10 ng/mL + 50 mg/mL wtPCI): 30.63%
Growth (Percentage in relation to the average of the controls) ([3]; Insulin 5 mg/mL + 50 mg/mL wtPCI): 44.10%
growth of pretreated cells cultured later in the absence of the protein compared to non-pretreated cells [4]: approximately half
